Results on 35 compounds are retold here after patent publication US12540118B2, “Dendrene amide compound, bactericide and use thereof” (Jiangsu Flag Chemical Industry Co., Ltd., priority 2020, dated 2026).

One assay concerns the target T1, succinate dehydrogenase (Sus scrofa, UniProt A5GZW8+D0VWV4+Q007T0).
T1 construct: isolated from porcine hearts; from tissue; host or cells: porcine heart
The experiment in a line: Enzyme activity assay, succinate dehydrogenase (DCIP reduction). Format: biochemical, porcine. To be noted: read-out: Inhibitors (10 μM, SQR). The protocol:
The inhibitory activities of control agents and target compounds on succinate dehydrogenase are determined.
The enzyme used in this test example is succinate dehydrogenase, which is isolated from porcine hearts.
The test method comprises the following steps: The total volume of the system is 1.8 ml, and the system contained 100 mM Na2HPO4—NaH2PO4 buffer (pH=7.4), 0.3 mM EDTA, 20 mM sodium succinate, 53 μM DCIP (2,6-dichloroindophenol sodium), and 2 nM succinate dehydrogenase. Thermostatic waterbath at 23° C. and magnetic stirring at 600 rpm. The decrease in the light absorption of the substrate DCIP is monitored at a wavelength of 600 nm and experimental points in a linear range are collected. Control substrate consumption not more than 5% of the experimental points. The molar extinction coefficient of DCIP is 21 mM^−1 cm^−1. And calculating the reduction yield of the DCIP in the reaction time, fitting a linear slope, and deducting the baseline slope to obtain the initial reaction speed.

For a further assay, the system named is Sphaerotheca fuliginea. The experiment in a line: Sphaerotheca fuliginea potting method. Type of assay: in vivo. To be noted: Podosphaera fuliginea; 100 mg/L; read-out: Sphaerotheca fuliginea control rating. The protocol: The fungicidal activity of the control agents and target compounds are determined. The test and investigation method refers to SOP-SC-1101 sphaerotheca fuliginea potting method in disinfectant rolls written by KANGZHUO and GUBAOGEN in “Standard operation specification for testing biological activity of pesticides”.

The next assay deals with Erysiphe graminis. The experiment in a line: Erysiphe graminis potting method. To be noted: Blumeria graminis, read-out: Erysiphe graminis control rating; for pest or weed control at 100 µg/mL: 100 mg/L. Type of assay: in vivo. The protocol: The fungicidal activity of the control agents and target compounds are determined. The test and investigation method refers to SOP-SC-1116 Erysiphe graminis potting method in disinfectant rolls written by KANGZHUO and GUBAOGEN in “Standard operation specification for testing biological activity of pesticides”.

Each structure is given as a SMILES string. Some results are limits rather than exact numbers.

T1 sequence (Q0QF01 43-664 partner): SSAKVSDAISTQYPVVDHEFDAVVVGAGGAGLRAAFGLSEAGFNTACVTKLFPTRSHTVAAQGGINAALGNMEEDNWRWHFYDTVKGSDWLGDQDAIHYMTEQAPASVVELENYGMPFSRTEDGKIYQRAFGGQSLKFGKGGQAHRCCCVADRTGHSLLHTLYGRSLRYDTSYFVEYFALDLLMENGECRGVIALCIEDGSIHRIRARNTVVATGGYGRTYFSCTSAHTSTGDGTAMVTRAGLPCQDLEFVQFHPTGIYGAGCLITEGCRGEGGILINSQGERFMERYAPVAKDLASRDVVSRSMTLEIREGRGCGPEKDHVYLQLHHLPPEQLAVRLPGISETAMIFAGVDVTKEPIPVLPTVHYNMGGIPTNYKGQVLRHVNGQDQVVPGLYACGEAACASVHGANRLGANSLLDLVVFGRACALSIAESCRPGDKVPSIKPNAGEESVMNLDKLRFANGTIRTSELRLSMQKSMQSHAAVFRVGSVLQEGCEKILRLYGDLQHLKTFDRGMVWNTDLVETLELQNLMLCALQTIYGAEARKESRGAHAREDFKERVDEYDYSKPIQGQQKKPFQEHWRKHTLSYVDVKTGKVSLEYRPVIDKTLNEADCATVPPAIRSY
T1 sequence (Q007T0 29-280): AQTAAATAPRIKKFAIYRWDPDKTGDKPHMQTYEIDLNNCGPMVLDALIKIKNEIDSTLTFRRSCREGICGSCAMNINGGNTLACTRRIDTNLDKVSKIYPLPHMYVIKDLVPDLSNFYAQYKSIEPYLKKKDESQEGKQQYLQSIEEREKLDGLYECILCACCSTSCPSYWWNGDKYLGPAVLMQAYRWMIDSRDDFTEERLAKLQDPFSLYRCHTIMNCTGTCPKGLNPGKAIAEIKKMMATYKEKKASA
T1 sequence (D0VWV4 30-169): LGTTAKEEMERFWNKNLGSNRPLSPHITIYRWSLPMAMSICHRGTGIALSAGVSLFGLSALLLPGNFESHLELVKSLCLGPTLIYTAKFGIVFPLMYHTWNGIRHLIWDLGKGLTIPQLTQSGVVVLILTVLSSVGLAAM
T1 sequence (A5GZW8 57-159 limits assumed): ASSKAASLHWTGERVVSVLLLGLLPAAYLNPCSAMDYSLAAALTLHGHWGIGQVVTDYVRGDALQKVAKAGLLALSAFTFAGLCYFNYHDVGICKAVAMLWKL

Turning to `C=C(CN(C(=O)c1c(C(F)F)nn(C)c1F)C1CC1)c1cccc(F)c1` [Compound 21], the inhibition at 10 µM at succinate dehydrogenase was greater than 90%. Also, the pest or weed control at 100 µg/mL was in the range of 70 to 80% with Sphaerotheca fuliginea and 80 to 100% with Erysiphe graminis.

`C=C(c1ccc(Br)cc1)C(C)N(C(=O)c1c(C(F)F)nn(C)c1F)C1CC1` (centres unmarked) [Compound 66]: the inhibition at 10 µM on succinate dehydrogenase is greater than 90%. For the same compound, the pest or weed control at 100 µg/mL in the assay on Sphaerotheca fuliginea and with Erysiphe graminis was 80 to 100% each time.

For `C=C(c1c(Cl)cc(Cl)cc1Cl)C(C)N(C(=O)c1c(C(F)F)nn(C)c1F)C1CC1` (centres unmarked) [Compound 74], the inhibition at 10 µM on succinate dehydrogenase was greater than 90%. For the same compound, the pest or weed control at 100 µg/mL with Sphaerotheca fuliginea and with Erysiphe graminis was 80 to 100% each time.

Consider `CC(C(=C(Cl)Cl)c1cccc(Br)c1)N(C(=O)c1c(C(F)F)nn(C)c1F)C1CC1` (centres unmarked) [Compound 186], for which the inhibition at 10 µM at succinate dehydrogenase was greater than 90%. Besides, the pest or weed control at 100 µg/mL with Sphaerotheca fuliginea and in the assay with Erysiphe graminis was 80 to 100% throughout.

Regarding `C=C(c1cc(C)ccc1C(C)C)C(C)N(C(=O)c1c(C(F)F)nn(C)c1F)C1CC1` (centres unmarked) [Compound 93], the inhibition at 10 µM at succinate dehydrogenase was greater than 90%. In addition, the pest or weed control at 100 µg/mL with Sphaerotheca fuliginea and in the assay on Erysiphe graminis was 80 to 100% each time.

Regarding `Cn1nc(C(F)F)c(C(=O)N(CC(=C(Cl)Cl)c2ccc(Cl)cc2)C2CC2)c1F` [Compound 112], the inhibition at 10 µM at succinate dehydrogenase was greater than 90%. Further, the pest or weed control at 100 µg/mL in the assay on Sphaerotheca fuliginea and in the assay with Erysiphe graminis was 80 to 100% each time.

`Cc1cc(C)cc(C(=C(Cl)Cl)C(C)N(C(=O)c2c(C(F)F)nn(C)c2F)C2CC2)c1` (centres unmarked) [Compound 205]: the inhibition at 10 µM on succinate dehydrogenase is greater than 90%. In addition, the pest or weed control at 100 µg/mL in the assay on Sphaerotheca fuliginea and in the assay on Erysiphe graminis was 80 to 100% each time.

As for `C=C(c1c(Br)cc(Br)cc1Br)C(C)N(C(=O)c1c(C(F)F)nn(C)c1F)C1CC1` (centres unmarked) [Compound 85], on succinate dehydrogenase, the inhibition at 10 µM was greater than 90%. Moreover, the pest or weed control at 100 µg/mL in the assay on Sphaerotheca fuliginea and in the assay with Erysiphe graminis was 80 to 100% in each case.

On to `C=C(CN(C(=O)c1c(C(F)F)nn(C)c1F)C1CC1)c1c(Cl)cc(Cl)cc1Cl` [Compound 19], for which the inhibition at 10 µM on succinate dehydrogenase is greater than 90%. The pest or weed control at 100 µg/mL in the assay with Sphaerotheca fuliginea and in the assay on Erysiphe graminis was 80 to 100% throughout.

In the case of `C=C(c1ccccc1Cl)C(C)N(C(=O)c1c(C(F)F)nn(C)c1F)C1CC1` (centres unmarked) [Compound 72], the inhibition at 10 µM on succinate dehydrogenase is greater than 90%. Also, the pest or weed control at 100 µg/mL in the assay with Sphaerotheca fuliginea and in the assay with Erysiphe graminis was 80 to 100% throughout.

For `CCS(=O)(=O)c1cccc(C(=C(Cl)Cl)C(C)N(C(=O)c2c(C(F)F)nn(C)c2F)C2CC2)c1` (centres unmarked) [Compound 217], the inhibition at 10 µM at succinate dehydrogenase was greater than 90%. The pest or weed control at 100 µg/mL in the assay on Sphaerotheca fuliginea and in the assay with Erysiphe graminis was 80 to 100% each time.

On to `C=C(c1cccc(F)c1)C(C)N(C(=O)c1c(C(F)F)nn(C)c1F)C1CC1` (centres unmarked) [Compound 56], for which the inhibition at 10 µM on succinate dehydrogenase was greater than 90%. Also, the pest or weed control at 100 µg/mL with Sphaerotheca fuliginea and in the assay on Erysiphe graminis was 80 to 100% in each case.

`C=C(CN(C(=O)c1c(C(F)F)nn(C)c1F)C1CC1)c1ccc(Br)cc1` [Compound 27]: on succinate dehydrogenase, the inhibition at 10 µM is greater than 90%. Further, the pest or weed control at 100 µg/mL in the assay on Sphaerotheca fuliginea and with Erysiphe graminis was 80 to 100% in each case.

For `C=C(CN(C(=O)c1c(C(F)F)nn(C)c1F)C1CC1)c1ccc(F)cc1` [Compound 22], the inhibition at 10 µM on succinate dehydrogenase is greater than 90%. Also, the pest or weed control at 100 µg/mL in the assay on Sphaerotheca fuliginea and in the assay on Erysiphe graminis was 80 to 100% throughout.

For the compound `C=C(CN(C(=O)c1c(C(F)F)nn(C)c1F)C1CC1)c1ccc(F)cc1F` [Compound 23], the inhibition at 10 µM at succinate dehydrogenase is greater than 90%. Moreover, the pest or weed control at 100 µg/mL with Sphaerotheca fuliginea and in the assay with Erysiphe graminis was 80 to 100% in each case.

`Cc1cccc(C(CN(C(=O)c2c(C(F)F)nn(C)c2F)C2CC2)=C(Cl)Cl)c1` [Compound 139]: at succinate dehydrogenase, the inhibition at 10 µM was greater than 90%. For the same compound, the pest or weed control at 100 µg/mL in the assay with Sphaerotheca fuliginea and with Erysiphe graminis was 80 to 100% each time.

Regarding `CC(C(=C(Cl)Cl)c1ccc(Br)cc1Br)N(C(=O)c1c(C(F)F)nn(C)c1F)C1CC1` (centres unmarked) [Compound 187], the inhibition at 10 µM at succinate dehydrogenase is greater than 90%. In addition, the pest or weed control at 100 µg/mL in the assay with Sphaerotheca fuliginea and in the assay with Erysiphe graminis was 80 to 100% throughout.

As to `C=C(CN(C(=O)c1c(C(F)F)nn(C)c1F)C1CC1)c1cc(C)ccc1C(C)C` [Compound 38], at succinate dehydrogenase, the inhibition at 10 µM is greater than 90%. Besides, the pest or weed control at 100 µg/mL with Sphaerotheca fuliginea lay in the range of 70 to 80%; in the assay on Erysiphe graminis, 80 to 100%. In the assay on Erysiphe graminis (6.25 mg/L), the pest or weed control at 6.25 µg/mL was in the range of 70 to 80%. Besides, the pest or weed control at 25 µg/mL in the assay on Erysiphe graminis (25 mg/L) was 80 to 100%.

On to `CC(C(=C(Cl)Cl)c1c(Cl)cccc1Cl)N(C(=O)c1c(C(F)F)nn(C)c1F)C1CC1` (centres unmarked) [Compound 172], for which the inhibition at 10 µM on succinate dehydrogenase is greater than 90%. Besides, the pest or weed control at 100 µg/mL with Sphaerotheca fuliginea and in the assay with Erysiphe graminis was 80 to 100% throughout.

As for `Cc1cc(C)c(C(CN(C(=O)c2c(C(F)F)nn(C)c2F)C2CC2)=C(Cl)Cl)c(C)c1` [Compound 143], the inhibition at 10 µM on succinate dehydrogenase is greater than 90%. In addition, the pest or weed control at 100 µg/mL in the assay on Sphaerotheca fuliginea and in the assay on Erysiphe graminis was 80 to 100% throughout.

Regarding `CC(C(=C(Cl)Cl)c1cccc(S(C)(=O)=O)c1)N(C(=O)c1c(C(F)F)nn(C)c1F)C1CC1` (centres unmarked) [Compound 213], the inhibition at 10 µM on succinate dehydrogenase is greater than 90%. Also, the pest or weed control at 100 µg/mL in the assay with Sphaerotheca fuliginea and with Erysiphe graminis was 80 to 100% throughout.

With `C=C(c1cc(S(C)(=O)=O)ccc1Cl)C(C)N(C(=O)c1c(C(F)F)nn(C)c1F)C1CC1` (centres unmarked) [Compound 106], the inhibition at 10 µM on succinate dehydrogenase is greater than 90%. Besides, the pest or weed control at 100 µg/mL in the assay on Sphaerotheca fuliginea and in the assay on Erysiphe graminis was 80 to 100% in each case.

Consider `C=C(CN(C(=O)c1c(C(F)F)nn(C)c1F)C1CC1)c1ccccc1Cl` [Compound 7], for which, at succinate dehydrogenase, the inhibition at 10 µM is greater than 90%. Besides, the pest or weed control at 100 µg/mL with Sphaerotheca fuliginea and in the assay on Erysiphe graminis was 80 to 100% each time.

Take `C=C(c1cc(Cl)ccc1Cl)C(C)N(C(=O)c1c(C(F)F)nn(C)c1F)C1CC1` (centres unmarked) [Compound 76]: on succinate dehydrogenase, the inhibition at 10 µM is greater than 90%. The pest or weed control at 100 µg/mL in the assay with Sphaerotheca fuliginea and in the assay with Erysiphe graminis was 80 to 100% in each case.

`Cc1ccc(C(C)(C)C)c(C(CN(C(=O)c2c(C(F)F)nn(C)c2F)C2CC2)=C(Cl)Cl)c1` [Compound 146]: on succinate dehydrogenase, the inhibition at 10 µM was greater than 90%. The pest or weed control at 100 µg/mL with Sphaerotheca fuliginea and in the assay with Erysiphe graminis was 80 to 100% in each case.

As to `C=C(CN(C(=O)c1c(C(F)F)nn(C)c1F)C1CC1)c1ccccc1C` [Compound 6], the inhibition at 10 µM at succinate dehydrogenase was greater than 90%. Also, the pest or weed control at 100 µg/mL in the assay with Sphaerotheca fuliginea and in the assay on Erysiphe graminis was 80 to 100% each time.

Regarding `CC(C(=C(Cl)Cl)c1ccc(Cl)c(Cl)c1)N(C(=O)c1c(C(F)F)nn(C)c1F)C1CC1` (centres unmarked) [Compound 173], the inhibition at 10 µM on succinate dehydrogenase was greater than 90%. The pest or weed control at 100 µg/mL in the assay with Sphaerotheca fuliginea and with Erysiphe graminis was 80 to 100% throughout.

Take `CC(C(=C(Cl)Cl)c1ccc(Br)c(Br)c1)N(C(=O)c1c(C(F)F)nn(C)c1F)C1CC1` (centres unmarked) [Compound 191]: at succinate dehydrogenase, the inhibition at 10 µM was greater than 90%. In addition, the pest or weed control at 100 µg/mL in the assay with Sphaerotheca fuliginea and in the assay on Erysiphe graminis was 80 to 100% each time.

Regarding `CC(C(=C(Cl)Cl)c1ccc(S(C)(=O)=O)cc1Cl)N(C(=O)c1c(C(F)F)nn(C)c1F)C1CC1` (centres unmarked) [Compound 212], the inhibition at 10 µM at succinate dehydrogenase is greater than 90%. Also, the pest or weed control at 100 µg/mL in the assay with Sphaerotheca fuliginea and with Erysiphe graminis was 80 to 100% each time.

Take `C=C(CN(C(=O)c1c(C(F)F)nn(C)c1F)C1CC1)c1ccccc1S(C)(=O)=O` [Compound 50]: the inhibition at 10 µM at succinate dehydrogenase is greater than 90%. The pest or weed control at 100 µg/mL in the assay on Sphaerotheca fuliginea and in the assay with Erysiphe graminis was 80 to 100% each time.

Regarding `Cn1nc(C(F)F)c(C(=O)N(CC(=C(Cl)Cl)c2c(Cl)cc(Cl)cc2Cl)C2CC2)c1F` [Compound 123], the inhibition at 10 µM on succinate dehydrogenase is greater than 90%. The pest or weed control at 100 µg/mL with Sphaerotheca fuliginea and in the assay on Erysiphe graminis was 80 to 100% throughout.

As to `Cn1nc(C(F)F)c(C(=O)N(CC(=C(Cl)Cl)c2ccccc2)C2CC2)c1F` [Compound 111], on succinate dehydrogenase, the inhibition at 10 µM was greater than 90%. Further, the pest or weed control at 100 µg/mL with Sphaerotheca fuliginea and with Erysiphe graminis was 80 to 100% each time.

Consider `C=C(CN(C(=O)c1c(C(F)F)nn(C)c1F)C1CC1)c1cccc(Br)c1` [Compound 5], for which the inhibition at 10 µM at succinate dehydrogenase is greater than 90%. Also, the pest or weed control at 100 µg/mL is less than 70% in the assay on Sphaerotheca fuliginea and 80 to 100% with Erysiphe graminis.

Take `C=C(c1cc(F)ccc1F)C(C)N(C(=O)c1c(C(F)F)nn(C)c1F)C1CC1` (centres unmarked) [Compound 77]: on succinate dehydrogenase, the inhibition at 10 µM is greater than 90%. Besides, the pest or weed control at 100 µg/mL with Sphaerotheca fuliginea and in the assay on Erysiphe graminis was 80 to 100% throughout.

On to `Cc1cc(C)cc(C(CN(C(=O)c2c(C(F)F)nn(C)c2F)C2CC2)=C(Cl)Cl)c1` [Compound 152], for which the inhibition at 10 µM at succinate dehydrogenase was greater than 90%. Besides, the pest or weed control at 100 µg/mL in the assay on Sphaerotheca fuliginea and in the assay with Erysiphe graminis was 80 to 100% throughout.
